{
  "source": "patent EP0335134B1",
  "about": "“Mouse monoclonal antibody to human immunodeficiency virus gp41 protein” (ABBOTT LABORATORIES, priority 1988, dated 1989)",
  "key": {"[1]": {"tested_on": "Binding of Antibody 5-21-3 to rp41", "experiment": "Binding inhibition assay: peptides blocking 5-21-3 binding to rp41", "set-up": "species or system mouse", "experimental": "Additional evidence for the conformational nature of the 5-21-3 epitope was obtained using binding inhibition studies, in which synthetic peptides were ranked for their ability to inhibit binding of 5-21-3 to rp41. First, the Fab dimer of an anti-gp41 monoclonal antibody was prepared by conventional methods (Goding et al., supra). Then 100 ul of a 1 mg/ml solution of the Fab dimer in bicarbonate buffer (pH 9.6) was coated onto Immulon II microtiter plates for 1 hr at 37°C. After washing with PBS containing 0.05% Tween 20, the plates were overcoated with 200 ul of 1.0% ovalbumin in bicarbonate buffer (pH 9.6) for 1 hr at 30°C. After washing, 100 ul of rp41 enriched E. coli lysate (as described in Example 3), diluted appropriately in PBS containing 0.05% Tween 20, were allowed to bind to the Fab dimer for 2 hr at 30°C. The plates were washed and stored at 4°C.\nIntact monoclonal antibody 5-21-3 IgG (purified from tissue culture fluid supporting growth of the cloned cell line 5-21-3) was titrated against the bound rp41 on the plate, and an antibody concentration was selected which yielded an A₄₉₂ value of 2.0-3.0. Usually, 0.4 pmol (0.06 ug) of 5-21-3 IgG per microtiter well was employed in these assays. Stock solutions of 5-21-3 IgG were prepared in PBS containing 0.1% Triton X-100 and 0.1% SDS. Dilutions of synthetic peptides were made in the same buffer (SDS was included in these experiments to keep peptides soluble at high concentrations).\nThe binding inhibition assay was performed by combining 0.15 ml of 1.2 ug/ml 5-21-3 antibody stock solution with 0.15 ml of peptide at a selected peptide concentration, and incubating the reaction mixture 1 hr at room temp. Then 0.1 ml aliquots of each reaction mixture were added to each of two wells in the microtiter tray. After a 1 hr incubation at room temp., the plates were washed, and HRPO conjugated Goat anti-mouse IgG Fc was added for 1 hr at room temp. The plates were washed, and addition of OPD for color development identified the relative amounts of 5-21-3 bound to rp41 in the microtiter wells. The reaction was stopped by addition of 100 ul of 1N H₂S0₄, and the plates were read on a Dynatech II microtiter plate reader."}, "[2]": {"tested_on": "monoclonal antibody 10-15-63", "experiment": "Immunoprecipitation of 125I synthetic peptides by 10-15-63", "format": "binding, mouse", "settings": "10 ug/0.2 ml reaction mixture; 0.1% Triton X-100, 1.0% BSA, carrier serum; second antibody precipitation", "experimental": "Synthetic peptides were radiolabeled with¹²⁵I (Amersham) by the chloramine T method (W.M. Hunter, \"Radioimmunoassay\" in D.M. Weir, Ed., Handbook of Experimental Immunology, [Blackwell Scientific Publications, 1973]). Generally, 2-6 ul of 100 mCi/ml ¹²⁵I were added to 10-50 ug of peptide in PBS, pH 7.4. Approximately 10 ug of freshly prepared (1 mg/ml in PBS) chloramine T were added to the mixture maintained at 4°C. After 5 min., [¹²⁵I]peptide was separated from free ¹²⁵I by passage of the reaction mixture through a 3 ml (bed volume) column of Biogel P-6 or P-2, as required. Fractions (200 ul each) containing [¹²⁵I]peptide were pooled and diluted into PBS containing 20% fetal calf serum. Rough estimations of¹²⁵I cpm bound to peptide were made by acid precipitation. […]\n(§1) Synthetic peptides radiolabeled with¹²⁵I were diluted into PBS (pH 7.4) containing 0.1% Triton X-100 (or other detergents where indicated) and 1.0% BSA, to yield approximately 2.5-5 X 10⁵ acid-precipitable cpm per 0.1 ml. […] The precipitate was collected by centrifugation (2,000 x g, 5 min., 20°C), washed once in PBS containing 0.1% Triton X-100 and 1.0% BSA, collected by centrifugation, and counted in an LKB 128 gamma counter. […]"}, "[3]": {"tested_on": "Rabbit (R) anti-P58-130 serum", "experiment": "Immunoprecipitation of 125I synthetic peptides by rabbit anti-P58-130 serum", "format": "binding", "experimental": "(§2) Synthetic peptides were radiolabeled with¹²⁵I (Amersham) by the chloramine T method (W.M. Hunter, \"Radioimmunoassay\" in D.M. Weir, Ed., Handbook of Experimental Immunology, [Blackwell Scientific Publications, 1973]). Generally, 2-6 ul of 100 mCi/ml ¹²⁵I were added to 10-50 ug of peptide in PBS, pH 7.4. Approximately 10 ug of freshly prepared (1 mg/ml in PBS) chloramine T were added to the mixture maintained at 4°C. After 5 min., [¹²⁵I]peptide was separated from free ¹²⁵I by passage of the reaction mixture through a 3 ml (bed volume) column of Biogel P-6 or P-2, as required. Fractions (200 ul each) containing [¹²⁵I]peptide were pooled and diluted into PBS containing 20% fetal calf serum. Rough estimations of¹²⁵I cpm bound to peptide were made by acid precipitation. An aliquot of labeled peptide was diluted into 1 ml of ice cold 50% trichloroacetic acid (TCA) overlaying a 0.45 um filter (made of mixed cellulose esters) set on a scintered glass filter connected to a vacuum apparatus. Precipitated protein was fixed onto the filter by application of vacuum, and filters were washed with ice-cold 50% TCA. Background cpm adhering non-specifically to the filter were estimated by repeating the procedure using a non-precipitating buffer. Amounts of peptide, ¹²⁵I, chloramine T, and composition of column eluting buffer were subject to change depending on conditions required to maintain solubility of each peptide.\nas §1, with “ml. Purified monoclonal IgG 5-21-3 and 10-15-63 were employed in the assay. Monoclonal antibodies were diluted into PBS containing 0.1% Triton X-100 (or other detergents where indicated), 1.0% BSA, and 2% normal mouse serum as a carrier immunoglobulin.” for “ml.”"}, "[4]": {"tested_on": "monoclonal antibody 5-21-3", "experiment": "Immunoprecipitation of 125I synthetic peptides by 5-21-3", "format": "binding, mouse", "experimental": "as §2\nSynthetic peptides radiolabeled with¹²⁵I were diluted into PBS (pH 7.4) containing 0.1% Triton X-100 (or other detergents where indicated) and 1.0% BSA, to yield approximately 2.5-5 X 10⁵ acid-precipitable cpm per 0.1 ml. Purified monoclonal IgG 5-21-3 and 10-15-63 were employed in the assay. Monoclonal antibodies were diluted into PBS containing 0.1% Triton X-100 (or other detergents where indicated), 1.0% BSA, and 2% normal mouse serum as a carrier immunoglobulin. Immune rabbit serum (anti-P58-130) was diluted appropriately into the same buffer except that normal rabbit serum (2%) was substituted for normal mouse serum as the carrier immunoglobulin. A reaction mixture comprising 0.1 ml [¹²⁵I] peptide (5 X l0⁵ cpm/0.1 ml) and 0.1 ml diluted antibody was incubated 1 hr at […], followed by addition of 0.1 ml of a precipitating antibody, either goat anti-mouse IgG, or goat anti-rabbit IgG, corresponding to the primary antibody. The reaction mixture was incubated 1 hr at […] and then overnight at 4°C. The precipitate was collected by centrifugation (2,000 x g, 5 min., 20°C), washed once in PBS containing 0.1% Triton X-100 and 1.0% BSA, collected by centrifugation, and counted in an LKB 128 gamma counter. […]"}, "[5]": {"tested_on": "monoclonal antibody 5-21-3", "experiment": "Immuno-dot blot of synthetic peptides with 5-21-3", "format": "binding, mouse", "settings": "25 ug/ml 5-21-3", "from_the_text": "The western Blot procedure described in Example 1 was employed for development of immuno-dot blots using synthetic peptides, except that synthetic peptides were fixed to nitrocellulose by direct application using Drummond lambda pipettes, and air dried prior to blocking with 20% fetal calf serum in PBS (pH 7.4). Monoclonal IgG 5-21-3, and a second anti-HIV I gp41 monoclonal antibody (IgG) 10-15-63 (which recognizes an epitope distinct and separate from the epitope recognized by 5-21-3), were purified from mouse ascites using Protein A-Sepharose, and employed at the concentrations indicated.\nImmuno-dot blot results are illustrated in Figure 5 where synthetic peptides were spotted onto nitrocellulose as follows:(A) 10 ug P58-130, (B) 10 ug P67-154,(C) 6 ug P121-154 and (D) 9 ug of P126-162. The strips were reacted with 25 ug/ml monoclonal antibody 5-21-3, 25 ug/ml monoclonal antibody 10-15-63, 25 ug/ml normal mouse IgG, 2% mouse (M) anti-rp41 serum, 2% normal mouse serum (NMS), 2% Rabbit (R) anti-P58-130 serum, or 2% normal rabbit serum (NRS)."}, "[6]": {"settings": "serum 20 ul/0.2 ml reaction mixture, 0.1% Triton X-100, 1.0% BSA, carrier serum, second antibody precipitation"}, "[7]": {"settings": "10 ug/0.2 ml reaction mixture, 0.1% Triton X-100, 1.0% BSA, carrier serum, second antibody precipitation"}},
  "data": [
    {"substance": "P121-154: synthetic peptide corresponding to gp41 amino acids 121-154 (DREINNYTSLIHSLIEESQNQQEKNEQELLELDK; Transmembrane protein gp41; UniProt P04578 632-665, looked up, fragment) [Peptide P121-154]", "values": [
      {"measurement": "binding inhibition activity restored by flanking sequence, relative to P131-154", "setting": "[1]", "value": "20-65 fold"},
      {"measurement": "binding inhibition activity, fold less active than P67-154", "setting": "[1]", "value": 20, "unit": "fold"},
      {"measurement": "Molar Ratio", "setting": "[1]; at 50% inhibition of 5-21-3 binding, mean of two experiments", "value": "1,494 pmoles peptide/pmoles 5-21-3"},
      {"measurement": "inhibition of 5-21-3 binding to rp41", "setting": "[1]; in words (Fig. 6, Table 6)", "value": "potent inhibitor"},
      {"measurement": "SPECIFIC PRECIPITATION (CPM) 10-15-63", "setting": "[2]", "value": 371, "unit": "CPM"},
      {"measurement": "x-fold increase of specific precipitation over non-specific precipitation, 10-15-63", "setting": "[2]", "value": 1.3, "unit": "x-fold"},
      {"measurement": "precipitation by rabbit anti-P58-130", "setting": "[3]; in words, summary of Table 4", "value": "strong precipitator"},
      {"measurement": "SPECIFIC PRECIPITATION (CPM) RαP58-130", "setting": "[3]; [6]", "value": "310,419 CPM"},
      {"measurement": "x-fold increase of specific precipitation over non-specific precipitation, RαP58-130", "setting": "[3]; [6]", "value": 24, "unit": "x-fold"},
      {"measurement": "SPECIFIC PRECIPITATION (CPM) 5-21-3", "setting": "[4]; [7]", "value": "40,717 CPM"},
      {"measurement": "x-fold increase of specific precipitation over non-specific precipitation, 5-21-3", "setting": "[4]; [7]", "value": 31, "unit": "x-fold"},
      {"measurement": "binding of the peptide by antibody 5-21-3", "setting": "[4]; in words, summary of Table 4", "value": "provided an epitope which was recognized by 5-21-3"},
      {"measurement": "5-21-3 concentration required to demonstrate reactivity against the peptide", "setting": "[4]; summary of Table 5", "value": "at least 100 ug/ml"},
      {"measurement": "dot blot reactivity with antibody 5-21-3", "setting": "[5]; mild washing procedures", "value": "faint, diffuse reaction"},
      {"measurement": "dot blot reactivity with antibody 5-21-3", "setting": "[5]; peptide spotted on nitrocellulose", "value": "difficult to demonstrate"}
    ]}
  ]
}
